# Results taken from paper PMC6934184, “Selective DNA-PKcs inhibition extends the therapeutic index of localized radiotherapy and chemotherapy” (The Journal of Clinical Investigation, 2019).
# Target: T1, PRKCD (PKC delta) (Homo sapiens, UniProt Q05655)
# T1 construct: purchased Thermo Fisher Scientific (Life Technologies) SelectScreen
# Experiment: SelectScreen Z'LYTE
# Assay type: biochemical
# Summary of the method: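 SelectScreen broad panel; activity (Z'LYTE, Adapta) plus binding formats. ATP: Km app for CSF1R Z'LYTE; 10 for CAMK1 Adapta. Readout = % per kinase.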
# T1 sequence (Q05655 whole entry): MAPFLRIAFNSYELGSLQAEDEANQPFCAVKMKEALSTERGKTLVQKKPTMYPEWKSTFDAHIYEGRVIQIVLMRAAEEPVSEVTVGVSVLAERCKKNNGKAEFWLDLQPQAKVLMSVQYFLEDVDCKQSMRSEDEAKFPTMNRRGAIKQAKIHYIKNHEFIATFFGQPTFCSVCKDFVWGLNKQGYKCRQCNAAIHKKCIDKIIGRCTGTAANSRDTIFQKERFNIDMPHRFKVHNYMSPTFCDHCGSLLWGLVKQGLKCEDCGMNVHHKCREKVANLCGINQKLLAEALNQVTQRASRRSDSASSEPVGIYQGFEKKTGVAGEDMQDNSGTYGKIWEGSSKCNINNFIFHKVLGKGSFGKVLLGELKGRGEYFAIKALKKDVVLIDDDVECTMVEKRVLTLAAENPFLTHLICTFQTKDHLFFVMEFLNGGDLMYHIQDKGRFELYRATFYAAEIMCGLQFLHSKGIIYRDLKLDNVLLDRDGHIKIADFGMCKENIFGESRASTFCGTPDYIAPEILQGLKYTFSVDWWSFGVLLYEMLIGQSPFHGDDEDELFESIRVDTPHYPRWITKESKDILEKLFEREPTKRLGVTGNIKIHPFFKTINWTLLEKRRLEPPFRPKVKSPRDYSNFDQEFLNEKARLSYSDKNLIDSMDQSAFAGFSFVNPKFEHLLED
smiles,measurement,value
CN(C(=O)CN1CCOCC1)c1ccc2sc3c(-c4cccc5c(=O)cc(N6CC7CCC(C6)O7)oc45)cccc3c2c1 [NU5455],inhibition at 1 µM,6.2%
